Results on 1 compound are retold here after patent US20050075398A1, “Neuroprotectin D1 protects against cellular apoptosis, stroke damage, alzheimer's disease and retinal diseases” (priority 2003, published 2005).

“Also recorded” adds a separate entry of the source.

One assay deals with ARPE-19 cells. As to the kind of experiment: Hoechst staining, TNFα/H2O2 oxidative stress-induced apoptosis. Format: cell-based, human. The procedure:
ARPE-19 cell culture and chemicals: ARPE-19 cells (L. M. Hjelmeland, ATCC # CRL-2302) were grown and maintained in DMEM-F12 medium supplemented with 10% FBS and incubated at 37° C. with a constant supply of 5% CO2. ARPE-19 cells are spontaneously transformed human retinal pigment epithelial cells that conserve cellular biological and functional properties. All chemicals were purchased from Sigma Chemical Co. (St. Louis, Mo.) unless otherwise indicated.
Hoechst staining: ARPE-19 cells were loaded with 2 μM Hoechst dissolved in a Locke's solution (Promega, Madison, Wis.) and incubated one h at 37° C. before imaging. Cells were then washed once with PBS and viewed using a Nikon DIAPHOT 200 microscope under UV fluorescence. Images were recorded by a Hamamatsu Color Chilled 3CCD camera and Photoshop 5.0 software, as described in Mukherjee, P. K., DeCoster, M. A., Campbell, F. Z., Davis, R. J. & Bazan, N. G. (1999) J. Biol. Chem. 274:6493-6498.
Several experimental conditions that result in reproducible oxidative-stress-induced apoptosis in ARPE-19 cells were tested. One condition chosen was the combination of TNFα with H2O2, both in relatively low concentrations. Typically 10 ng/ml of TNFα and 400-800 μM H2O2 led to marked increase in Hoechst-positive cells (Data not shown). Neither TNFα nor H2O2 alone triggered a significant effect under these conditions. (Data not shown).
Serum starvation made ARPE-19 cells more sensitive to oxidative stress-triggered apoptosis induced by TNFα/H2O2. Cells were grown in culture for 72 h in the presence of BSA (3.35 μM) with or without DHA (6.7 μM). Endogenous NPD1 formation was enhanced by BSA-DHA (FIG. 12A).
In the next experiment, confluent cells were starved for 8 h, then TNFα/H2O2 was added and incubated for 14 h before staining with Hoechst reagent. NPD1 (50 nM) was added at the time of adding TNFα/H2O2. […] When the TNFα concentration (10 ng/ml) was maintained and H2O2 concentration was decreased from 800 to 400 μM, fewer Hoechst-positive cells were seen. […] (Data not shown).

For another assay, the system named is COX-2 gene expression. As to the kind of experiment: HGU133 GeneChip DNA array in HN cells: COX-2. Format: cell-based, human. The following applies: Aβ42 25 μM, DHA 50 nM or NPD1 50 nM, 18 h, nsc = no significant change.
The test system of assay [1] is myeloperoxidase immunoreactivity (PMN leukocytes). As to the kind of experiment: Immunohistochemistry of myeloperoxidase after MCA-O. Format: in vivo, mouse. Conditions: infusion 0.4 μg over 48 h; 1 h MCA-O, 48 h reperfusion. As for the experimental part: Immunohistochemistry of myeloperoxidase to assess leukocyte infiltration. After MCA-O, mice were infused by Alzet mini-pumps with vehicle or 10,17S-docosatriene (NPD1). After 48 h, mice were anesthetized and killed by intracardial perfusion of ice-cold saline followed by 10% neutral buffered formalin. Brain tissues were allowed to equilibrate overnight in 4% buffered formalin, followed by 30% sucrose in 0.1 M PBS. Frozen sections were made at 10 μm thickness and mounted on glass slides. Sections were permeablized with 0.6% Triton X-100 for 10 min, washed in PBS, and blocked in 2% goat serum in PBS for 30 min. Incubation with myeloperoxidase/FITC-conjugated antibody (DAKO A/S, Denmark) was performed at 1:200 dilution for 2 h. Sections were washed in Tween-20 in PBS then mounted in Vectashield (Vector, Calif.). Images were recorded by deconvolution microscope (Intelligent Imaging Innovations, Denver, Colo.).
To determine whether 10,17S-docosatriene (NPD1) affected brain ischemia-reperfusion-induced PMN infiltration, either DHA or 10,17S-docosatriene (NPD1) was constantly infused into the third ventricle of a mouse brain during 48 h of reperfusion. […] The data shown represent averages± SD of the indicated number (n) of individual mice. Immunocytochemical changes in polymorphonuclear leukocytes were shown by a green fluorescence that indicated myeloperoxidase immunoreactivity. […]

For a further assay, the system named is COX-1 expression. The assay can be described thus: COX-1 mRNA abundance in ipsilateral hippocampus after MCA-O. Format: in vivo, mouse. The following applies: 1 h MCA-O, 2 h reperfusion, NPD1 0.16 μg/ml infused. As for the experimental part:
COX-2 RNA abundance in hippocampus and HN cells. Abundance of human-specific COX-1 and COX-2 RNA message was assayed using RT-PCR as described in Bazan, N. G., and Lukiw, W. J. (2002) J. Biol. Chem. 277, 30359-30367.
To determine COX-1 and COX-2 expression, mRNA abundance in the ipsilateral hippocampus was measured. […] A 3-fold increase of COX-2 was seen due to MCA-O reperfusion (FIG. 7C). The infusion of the precursor DHA as well as its product 10,17S-docosatriene (NPD1) inhibited COX-2 expression by 14% and 52%, respectively.

For assay [2], the system named is polymorphonuclear leukocyte infiltration. The assay can be described thus: Zymosan-induced peritonitis, leukocyte infiltration. The class given is in vivo, mouse. The following applies: 100 ng i.v. bolus 1.5 min before Zymosan A; lavage at 2 h. As for the experimental part: The inhibition of leukocyte infiltration in zymosan-induced peritonitis by 4,17S-diHDHA and 10,17S-docosatriene (NPD1) was tested. […] Peritonitis was induced in 6- to 8-week-old male FVB mice (Charles River Laboratories) by peritoneal injection of 1 mg Zymosan A. The compounds 4,17S- and 10,17S-diHDHA were injected by intravenous bolus injection, 1.5 minutes before Zymosan A treatment. Two hours after induction of peritonitis, rapid peritoneal lavages were collected, and cell type enumeration was performed.

As to `CC/C=C\C[C@H](O)\C=C/C=C/C=C/[C@H](O)C/C=C\C/C=C\CCC(=O)O` [NPD1, 10,17S-docosatriene], the “inhibition of oxidative stress (TNFα/H2O2)-induced Hoechst-positive cells / apoptosis” value with ARPE-19 cells (50 nM added with TNFα 10 ng/ml plus H2O2 (400-800 μM), 14 h) was “inhibition; also recorded: inhibited apoptosis”. Moreover, in the assay on ARPE-19 cells (50 nM, TNFα 10 ng/ml plus H2O2 400 μM), the “inhibition of oxidative stress caused by the lower H2O2 concentration” value is on record as “almost completely inhibited”. Besides, the “COX-2 gene expression, fold change over untreated controls” value in the assay on COX-2 gene expression was “nsc”. Besides, in assay [1], the “green fluorescence (myeloperoxidase immunoreactivity), ipsilateral brain” value is recorded as “surprisingly large reduction”. Moreover, the “decrease of COX-1 expression (mRNA)” value with COX-1 expression worked out at 19%. Further, in assay [2], the “inhibition of leukocyte infiltration” value is “potent inhibition”.
